From article PMC8272215 (2021)

Legend:
[1] = tested on: poly A-poly U (RNA, polymer) A/U; test: fluorescent indicator displacement (DAPI); conditions: Na+ (50 mM sodium cacodylate); pH 7.4; DAPI displaced; polynucleotide 1-2 × 10^-5 M
[2] = tested on: poly A-poly U (RNA, polymer) A/U; test: fluorescent indicator displacement (EB); conditions: Na+ (50 mM sodium cacodylate); pH 7.4; ethidium bromide displaced; polynucleotide 3-4 × 10^-5 M
[3] = tested on: poly A-poly U (RNA, polymer) A/U; test: UV melting at 260 nm; conditions: Na+ (50 mM sodium cacodylate); pH 7.4; r = [ligand]/[polynucleotide] = 0.05; caption says ctDNA, text b32 says poly A-poly U; per base

ΔTm [3] [°C] | Structure (SMILES) | IC50 [1] | IC50 [2]
21.3 | NCCN(CCN)CCCNCCN1CCNCc2cccc(n2)CNCC1 | 0.85 [ligand]/[polynucleotide] ratio (dimensionless) | 0.63 [ligand]/[polynucleotide] ratio (dimensionless)
17.1 | c1cc2nc(c1)CNCCN(CCCNCCN1CCNCc3cccc(n3)CNCC1)CCNC2 | 0.45 [ligand]/[polynucleotide] ratio (dimensionless) | 0.86 [ligand]/[polynucleotide] ratio (dimensionless)
